Measured values as given in patent US20230399360A1, “TERLIPRESSIN-OCTADECANEDIOIC ACID CONJUGATE FOR VASOCONSTRICTIVE THERAPY” (Northwestern University, priority 2019, published 2023).
Bridge positions count the residues as written; N and C are the ends. Peptide text beside a SMILES is read from it. * marks the point of attachment. C18 diacid = O=C(O)CCCCCCCCCCCCCCCCC(=O)*

Legend:
[1] = Non-invasive tail-cuff systolic blood pressure measurement in mice; assay type: in vivo, C57BL/6 mice; conditions: for increase in systolic blood pressure: C57BL mice, intraperitoneal injection, 0.1 to 10 μg/gr body weight, 20 minutes of measurement, compared with PBS vehicle
[2] = mouse, in vivo
Description: (§1) Blood samples were drawn from the animals (approximately 100 μl) at different time points (1 hr, 3 hr, 6 hr, 24 hr) following the injection. The plasma was separated from the whole blood by centrifugation at 7,000 RPM for 10 minutes and the supernatant was transferred to a new tube. To separate the peptides or peptide conjugates from the plasma proteins, the proteins were denatured using a 7M guanidinium hydrochloride solution mixed 1:1 with the plasma and incubated at room temperature for 15 minutes. Subsequently, to the solution was diluted 10-fold with cold ethanol and the samples were incubated at −20° C. After 1 hour incubation the samples were centrifuged at 10,000 RPM for 10 minutes to precipitate the proteins, and the supernatant was transferred to a new tube. Samples were kept at −80° C. until analyzed.
(§2) 5-20 μl of the ethanol solution were injected to a QTRAP 6500+LC-MS/MS system (SCIEX) for detecting the drug concentration. Mass spectra were obtained and the areas under the curves were evaluated against a calibration curve made formerly.
(§3) Blood pressure measurements were taken for the first 20 minutes following drug injection, and subsequently blood samples were drawn at 1, 3, 6 and 24 hours.

[3] = human, in vivo; cited from earlier work
V1 receptor = target: T1, V1 receptor (Homo sapiens, UniProt P37288); assay: Calcium influx assay (Fluo-4) in primary human aortic smooth muscle cells; assay type: cell-based; conditions: 10^-8 to 10^-4 M, fluorescence over 5 min
T1 construct: Primary human aortic smooth muscle cells (ATCC, PCS-100-012 cell line) were cultured in vascular cell basal medium; host or cells: primary human aortic smooth muscle cells
Description: Primary human aortic smooth muscle cells (ATCC, PCS-100-012 cell line) were cultured in vascular cell basal medium supplemented with rhFGF-basic 5 ng/mL, rh insulin 5 μg/mL, ascorbic acid 50 μg/mL, L-glutamine 10 mM, rh EGF 5 ng/mL, fetal bovine serum 5%.
Calcium influx assays were performed using Fluo-4 direct calcium assay kit (ThermoFisher) on cells between passage numbers 3 to 6. To this end, cells were passaged and plated in a 96-well black tissue culture plate in a concentration of 10,000 cells per well followed by incubation in 37° C. and 5% CO2 for 48 hours. Cells were loaded with the dye and incubated for 1 hr at 37° C. and 5% CO2. Then, terlipressin peptide or terlipressin-ODDA was added to the wells in concentrations ranging from 10^−8 to 10^−4 M, and fluorescence was measured immediately on a Perkin Elmer EnSpire 2300 plate reader. Signal was measured at 530 nm following excitation at 488 nm at 999 time points over a 5 min period.

in vivo = conditions: mouse
Description: as §1, §2, §3

[4] = mice, systolic blood pressure vs baseline (FIG. 8)
[5] = listed as terlipressin conjugate

T1 sequence (P37288 whole entry): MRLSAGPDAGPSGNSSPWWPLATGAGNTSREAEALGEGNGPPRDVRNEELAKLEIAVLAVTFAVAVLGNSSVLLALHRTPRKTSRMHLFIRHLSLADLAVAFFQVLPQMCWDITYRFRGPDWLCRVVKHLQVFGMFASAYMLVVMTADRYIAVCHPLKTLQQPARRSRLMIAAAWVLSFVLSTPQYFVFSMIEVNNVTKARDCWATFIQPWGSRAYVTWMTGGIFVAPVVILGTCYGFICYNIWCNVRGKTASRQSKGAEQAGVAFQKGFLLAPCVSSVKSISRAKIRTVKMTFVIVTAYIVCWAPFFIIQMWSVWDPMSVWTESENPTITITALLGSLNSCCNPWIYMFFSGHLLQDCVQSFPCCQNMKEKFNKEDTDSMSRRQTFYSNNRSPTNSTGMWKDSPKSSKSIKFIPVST

Row | Structure (SMILES) | increase in systolic blood pressure [1] | course of systolic blood pressure over time after injection [1, 4] | time of peak in measured blood pressure following the injection [1, 4] [min] | detection in plasma by LC-MS-MS [2] | half life following IV administration [3] | activation of smooth muscle cells indicated by influx of intracellular calcium (V1 receptor; listed as conjugate) | activation of smooth muscle cells indicated by influx of intracellular calcium (V1 receptor; [5]) | activation of smooth muscle cells indicated by influx of intracellular calcium (V1 receptor; listed as terlipressin conjugates) | increase in systolic blood pressure ([1]; listed as C18 ODDA-terlipressin conjugates) | increase in systolic blood pressure ([1]; listed as ODDA-terlipressin conjugates) | increase in systolic blood pressure [1, 5] | half-lifetime in plasma [2] | half-life (in vivo) [h]
1 | NCCCC[C@H](NC(=O)[C@@H]1CCCN1C(=O)[C@@H]1CSSC[C@H](NC(=O)CNC(=O)CNC(=O)CN)C(=O)N[C@@H](Cc2ccc(O)cc2)C(=O)N[C@@H](Cc2ccccc2)C(=O)N[C@@H](CCC(N)=O)C(=O)N[C@@H](CC(N)=O)C(=O)N1)C(=O)NCC(N)=O [terlipressin, Terlipressin] (H-GGGCYFQNCPKG-NH2; disulfide 4-9) | clear increase in pressure | continuous drop in pressure | 5 | no terlipressin was detected at all | less than 6 minutes | – | – | – | – | – | – | – | –
2 | NCCCCC(NC(=O)C1CCCN1C(=O)C1CSSCC(NC(=O)CNC(=O)CNC(=O)CNC(=O)CCCCCCCCCCCCCCCCC(=O)O)C(=O)NC(Cc2ccc(O)cc2)C(=O)NC(Cc2ccccc2)C(=O)NC(CCC(N)=O)C(=O)NC(CC(N)=O)C(=O)N1)C(=O)NCC(N)=O (stereo not shown) [C18-terlipressin, octadecanedioic acid-terlipressin] ({C18 diacid}-GGGCYFQNCPKG-NH2; disulfide 4-9; configuration not given here) | clear increase in pressure | more stable pressure over time | – | very sharp and clear peaks | – | can stimulate vasocontraction in cultured smooth muscle cells | can stimulate response in cultured smooth muscle cells | can bind to and activate smooth muscle cells | increase the systolic blood pressure | increase the systolic blood pressure | Rise in blood pressure was observed | about 1 hour | ~1
